Laboratory results reported in patent publication US20150125403A1, “PERSONAL CARE AND COSMETIC COMPOSITIONS COMPRISING RENEWABLY-BASED, BIODEGRADABLE 1,3-PROPANEDIOL” (DuPont Tate & Lyle Bio Products Company, LLC, priority 2006, published 2015).

How the values were obtained:
[1] = viscosity of the composition; assay type: physicochemical; conditions: cosmetic emulsion of Example 1 made with the named glycol instead of Bio-PDO
Procedure: Brookfield Model RV−Spindle 5 at 20 rpm for 1 minute (factor×200)
Brookfield Model RV−Spindle T at 5 rpm for 1 minute (factor×10,000)

[2] = tested on: human skin; assay: human skin patch test with approximately 100 subjects; assay type: in vivo; conditions: 5, 25, and 50% PDO
Text: (§1) Based on these studies PDO is not expected to be a skin irritant or sensitizer in humans.

[3] = tested on: human skin; assay: second human skin patch test; assay type: in vivo; conditions: 25, 50, and 75% (pH 7)
Text: as §1

CC(O)CCO (centres unmarked) [1,3-butylene glycol]
viscosity of the cosmetic emulsion containing the glycol [1]: 6000 cps

CC(CO)CO [2-methyl-1,3-propanediol]
viscosity of the cosmetic emulsion containing the glycol [1]: 9600 cps

OCCCO [PDO, 1,3-propanediol]
skin reactions indicative of irritation or sensitization [2]: did not cause any skin reactions indicative of irritation or sensitization

CC(O)CO (centres unmarked) [propylene glycol, 1,2-propanediol]
patch test irritation and cumulative irritation of human skin [3]: patch test irritants and cumulative irritants for human skin | viscosity of the cosmetic emulsion containing the glycol [1]: 12600 cps
